Results reported in patent publication EP0502314A1, “Benzimidazol, medicaments containing them and process for their preparation” (Dr. Karl Thomae GmbH, priority 1991, dated 1992).
Where a name gives a salt, the structure may show the parent alone.

Biological target: T1, Angiotensin II-Rezeptor (Rattus norvegicus, UniProt P25095)
T1 construct: Das Gewebe (Rattenlunge) wird in Tris-Puffer; from tissue; host or cells: rat lung homogenate (membrane pellet, 20,000 x g)
T1 sequence (P25095 1-359): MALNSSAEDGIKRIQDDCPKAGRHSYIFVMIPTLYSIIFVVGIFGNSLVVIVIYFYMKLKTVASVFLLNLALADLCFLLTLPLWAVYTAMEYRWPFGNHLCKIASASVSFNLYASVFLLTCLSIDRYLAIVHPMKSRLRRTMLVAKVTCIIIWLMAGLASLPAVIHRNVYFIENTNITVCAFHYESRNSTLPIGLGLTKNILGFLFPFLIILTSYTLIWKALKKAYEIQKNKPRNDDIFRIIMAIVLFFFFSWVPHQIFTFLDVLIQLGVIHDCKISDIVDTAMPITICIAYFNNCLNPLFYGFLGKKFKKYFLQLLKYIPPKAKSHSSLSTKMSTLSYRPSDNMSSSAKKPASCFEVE
Experiment: Angiotensin II receptor binding (displacement of [125I]-angiotensin II, rat lung homogenate)
Set-up: species or system Ratte
Settings: Rattenlunge homogenate; 50 pM [125I]-Angiotensin II; 60 Min. bei 37°C; read-out: IC₅₀
Experimental: Methodenbeschreibung Angiotensin II-Rezeptorbindung
Das Gewebe (Rattenlunge) wird in Tris-Puffer (50 mMol Tris, 150 mMol NaCl, 5 mMol EDTA, pH 7.40) homogenisiert und zweimal je 20 Min. bei 20.000 x g zentrifugiert. Das endgültige Pellet wird in Inkubations-Puffer (50 mMol Tris, 5 mMol MgCl₂, 0,2 % BSA, pH 7,40) 1:75, bezogen auf das Feuchtgewicht des Gewebes, resuspendiert. Je 0,1 ml Homogenat wird für 60 Min. bei 37°C mit 50 pM [125^I]-Angiotensin II (NEN, Dreieich, FRG) und steigenden Konzentrationen der Testsubstanz in einem Gesamtvolumen von 0,25 ml inkubiert. Die Inkubation wird durch rasche Filtration durch Glasfiber-Filtermatten beendet. Die Filter werden je 4 ml eiskaltem Puffer (25 mMol Tris, 2.5 mMol MgCl₂, 0,1 % BSA, pH 7,40) gewaschen. Die gebundene Radioaktivität wird in einem Gamma-Counter ermittelt. Aus der Dosis-Wirkungskurve wird der entsprechende IC₅₀-Wert ermittelt.

Row | SMILES | IC50
1 | Cc1cc(-c2nc3ccccc3n2C)cc2c1nc(C1CC1)n2Cc1ccc(-c2ccccc2C(=O)O)cc1 [Substanz M, 4'-[(2-Cyclopropyl-4-methyl-6-(1-methylbenzimidazol-2-yl)-benzimidazol-1-yl)-methyl]-biphenyl-2-carbonsäure] | 12 nM
2 | CCCc1nc2c(Cl)cc(-c3nc4ccccc4n3C)cc2n1Cc1ccc(-c2ccccc2-c2nn[nH]n2)cc1 [Substanz R, 4'-[(2-n-Propyl-4-chlor-6-(1-methylbenzimidazol-2-yl)-benzimidazol-1-yl)-methyl]-2-(1H-tetrahol-5-yl)-biphenyl-hydrochlorid] | 20 nM
3 | CCCCc1nc2c(C)ccc(OCCCn3ccnc3)c2n1Cc1ccc(-c2ccccc2-c2nnn[nH]2)cc1 [Substanz L, 4'-[[2-n-Butyl-7-[3-(imidazol-1-yl)-propyloxy]-4-methyl-benzimidazol-1-yl]-methyl]-2-(1H-tetrazol-5-yl)-biphenyl] | 240 nM
4 | CCCCc1nc2c(C)ccc(OCCCn3ccnc3)c2n1Cc1ccc(-c2ccccc2C(=O)O)cc1 [Substanz A, 4'-[[2-n-Butyl-7-[3-(imidazol-1-yl)-propyloxy]-4-methyl-benzimidazol-1-yl]-methyl]-biphenyl-2-carbonsäure] | 510 nM
5 | CCCc1nc2c(C)cc(-c3cn4cccnc4n3)cc2n1Cc1ccc(-c2ccccc2-c2nnn[nH]2)cc1 [Substanz O, 4'-[(2-n-Propyl-4-methyl-6-(imidazo[1,2-a]pyrimidin-2-yl)-benzimidazol-1-yl)-methyl]-2-(1H-tetrazol-5-yl)-biphenyl] | 3.4 nM
6 | CCCc1nc2c(C)cc(-c3cn4c(n3)CCCC4)cc2n1Cc1ccc(-c2ccccc2C(=O)O)cc1 [Substanz P, 4'-[(2-n-Propyl-4-methyl-6-(5,6,7,8-tetrahydro-imidazo-[1,2-a]pyridin-2-yl)-benzimidazol-1-yl)-methyl]-biphenyl-2-carbonsäure] | 1.2 nM
7 | CCCCc1nc2c(C)ccc(OCCCCn3cnc4c3CCCC4)c2n1Cc1ccc(-c2ccccc2C(=O)O)cc1 [Substanz C, 4'-[[2-n-Butyl-4-methyl-7-[4-(tetrahydrobenzimidazol-1-yl)-butyloxy]-benzimidazol-1-yl]-methyl]-biphenyl-2-carbonsäure] | 130 nM
8 | CCCc1nc2c(C)cc(-c3cn4c(n3)CCCC4)cc2n1Cc1ccc(-c2ccccc2-c2nnn[nH]2)cc1 [Substanz Q, 4'-[(2-n-Propyl-4-methyl-6-(5,6,7,8-tetrahydro-imidazo-[1,2-a]pyridin-2-yl)-benzimidazol-1-yl)-methyl]-2-(1H-tetrazol-5-yl)-biphenyl] | 1.7 nM
9 | CCCc1nc2c(C)cc(-c3cn4ccsc4n3)cc2n1Cc1ccc(-c2ccccc2C(=O)O)cc1 [Substanz S, 4'-[[2-n-Propyl-4-methyl-6-(imidazo[2,1-b]thiazol-6-yl)-benzimidazol-1-yl]-methyl]-biphenyl-2-carbonsäure] | 7.8 nM

Further lines, results first:

Row | IC50 | SMILES
10 | 17 nM | CCCCc1nc2c(C)cc(NC(=O)NC3CCCCC3)cc2n1Cc1ccc(-c2ccccc2C(=O)O)cc1 [Substanz K, 4'-[[2-n-Butyl-6-(cyclohexylaminocarbonylamino)-4-methyl-benzimidazol-1-yl]-methyl]-biphenyl-2-carbonsäure-semi-trifluoracetat]
11 | 14 nM | CCCc1nc2c(C)cc(-c3nc4ccccc4n3C)cc2n1Cc1ccc(-c2ccccc2-c2nnn[nH]2)cc1 [Substanz E, 4'-([2-n-Propyl-4-methyl-6-(1-methylbenzimidazol-2-yl)-benzimidazol-1-yl]-methyl]-2-(1H-tetrazol-5-yl)-biphenyl]
12 | 1.2 nM | CCCc1nc2c(C)cc(N3CCCCS3(=O)=O)cc2n1Cc1ccc(-c2ccccc2-c2nn[nH]n2)cc1 [Substanz G, 4'-[[2-n-Propyl-4-methyl-6-(butansultam-1-yl)-benzimidazol-1-yl]-methyl]-2-(1H-tetrazol-5-yl)-biphenyl]
13 | 6.6 nM | CCCCc1nc2c(C)cc(NC(=O)C(C)C)cc2n1Cc1ccc(-c2ccccc2C(=O)O)cc1 [Substanz I, 4'-[[2-n-Butyl-6-(isopropylcarbonylamino)-4-methyl-benzimidazol-1-yl]-methyl]-biphenyl-2-carbonsäure]
14 | 20 nM | CCCCc1nc2c(C)cc(N3C(=O)C(C)=C(C)C3=O)cc2n1Cc1ccc(-c2ccccc2C(=O)O)cc1 [Substanz H, 4'-[[2-n-Butyl-6-(2,3-dimethylmaleinsäureimino)-4-methyl-benzimidazol-1-yl]-methyl]-biphenyl-2-carbonsäure-semihydrat]
15 | 26 nM | CCCc1nc2c(C)cc(-c3nc4cc(F)ccc4n3C)cc2n1Cc1ccc(-c2ccccc2C(=O)O)cc1 [Substanz N, 4'-[(2-n-Propyl-4-methyl-6-(1-methyl-5-fluor-benzimidazol-2-yl)-benzimidazol-1-yl)-methyl]-biphenyl-2-carbonsäure]
16 | 52 nM | CCCCc1nc2c(C)ccc(OCCCn3cnc4ccccc43)c2n1Cc1ccc(-c2ccccc2C(=O)O)cc1 [Substanz B, 4'-[[2-n-Butyl-7-[3-(benzimidazol-1-yl)-propyloxy]-4-methyl-benzimidazol-1-yl]-methyl]-biphenyl-2-carbonsäure-trifluoracetat]
17 | 3.5 nM | CCCCc1nc2c(C)cc(NC(=O)N3CCOCC3)cc2n1Cc1ccc(-c2ccccc2C(=O)O)cc1 [Substanz J, 4'-[[2-n-Butyl-4-methyl-6-(morpholinocarbonylamino)-benzimidazol-1-yl]-methyl]-biphenyl-2-carbonsäure]
18 | 3.7 nM | CCCc1nc2c(C)cc(-c3nc4ccccc4n3C)cc2n1Cc1ccc(-c2ccccc2C(=O)O)cc1 [Substanz D, 4'-[[2-n-Propyl-4-methyl-6-(1-methylbenzimidazol-2-yl)-benzimidazol-1-yl]-methyl]-biphenyl-2-carbonsäure]
19 | 5 nM | CCCc1nc2c(C)cc(N3Cc4ccccc4C3=O)cc2n1Cc1ccc(-c2ccccc2-c2nnn[nH]2)cc1 [Substanz F, 4'-[[2-n-Propyl-4-methyl-6-(1-oxo-isoindolin-2-yl)-benzimidazol-1-yl]-methyl]-2-(1H-tetrazol-5-yl)-biphenyl]
